Results: patent US12508280B2, “Formulations for improving gut health” (DSM IP ASSETS B.V., priority 2018, dated 2025)

What was measured:
[1] = system: cecal microbiota; assay: Broiler feeding trial, cecal microbiota 16S rRNA sequencing; assay type: in vivo, chickens
Excerpt: (§1) Each group was sampled three times (i.e., S1=14 days, S2=28 days, S3=38/42 days) in specific days corresponding to when the feed will be changed along the feeding program.
(§2) During each sampling (i.e., S1, S2 and S3) a total of 40 birds/group were humanely euthanized and 9 litter samples will be collected (i.e., 3 samples/group).
DNA extraction from cecal samples: The commercial kit DNeasy PowerSoil kit (Qiagen, Hilden, Germany) has been chosen and applied to all available cecal samples following the manufacturer instructions. DNA yield was measured using a Nanodrop instrument.
(§3) 16S rRNA gene PCR amplification and sequencing. The V3-V4 hypervariable region of the 16S rRNA gene was PCR-amplified using 341F and 785R primers with Illumina overhang adaptors sequences. Amplicons purification was performed by using AMPure XP Beads magnetic beads (Beckman Coulter, Brea, CA). For the indexed library preparation, the Nextera XT DNA Library Prep Kit (Illumina, San Diego, CA) was used. A further magnetic beads purification step was performed and libraries quantified using the Qubit 3.0 fluorimeter (Invitrogen), then pooled at 4 nM. The library pool was denatured with NaOH 0.2 N and diluted to […]. Sequencing was performed on Illumina MiSeq platform using a 2×250 bp paired end protocol, according to the manufacturer's instructions (Illumina).
Bioinformatics and statistics. Raw sequences were processed using a pipeline combining PANDAseq (Masella et al, 2012) and QIIME2 (Caporaso et al, 201 O; qiime2.org). After chimera sequences removal, high-quality reads were filtered and binned into high-resolution operational taxonomic units (OTUs) according to the taxonomic threshold of 99% through an open-reference strategy performed with dada2 (Callahan et al, 2016). Taxonomy was assigned using the vsearch classifier (Rognes et al, 2016) and SILVA database as reference (Quast et al, 2013). Alpha diversity was measured using Faith PD index and number of observed OTUs. Statistics was performed using R Studio software version 1.0.136 running on R software 3.1.3 (r-project.org/), implemented with the libraries vegan, made4, PMCMR. Beta diversity was estimated by computing weighted UniFrac distances and visualized by Principal Coordinates Analyses (PCoAs). The significance of separation among groups of samples was tested by permutational multivariate analysis of variance using the function adonis of the vegan package. Bacterial phylogenetic groups (genus, family, phylum) showing a minimum relative abundance of 0.5% in at least the 1% of the samples were kept for further analysis and graphical visualization. Compositional differences among group of samples were tested using Kruskal-Wallis test. P values were corrected for multiple comparisons using the Benjamini-Hochberg method.

[2] = system: caecal contents; assay: In vitro gas production with caecal contents; assay type: cell-based, pigs
Experimental: After 30 days of adaptation, animals were slaughtered. […] Regarding the caecal contents, one part was immediately sampled, dispensed in 20 ml tubes, frozen in liquid nitrogen and stored at −80° C. to use as frozen inoculum for in vitro gas production studies. The other part was directly used as fresh fermentation inoculum.
The microbial fermentation pattern of caecal contents was studied in vitro by the gas production technique (Theodorou et al., 1994. Anim Feed Sci Technol 48:185-1-97). […] Firstly, triplicate glass bottles (110 mL total volume) for each treatment were filled with 56 mL incubation solution. Caecal contents of each of the 3 pigs for each treatment were mixed 2:1 with the incubation solution under CO2 atmosphere and homogenized for few minutes with waring blender (ceacal contents implies a 0.20 of total incubation solution). Then, 24 mL of the mixture were added to each bottle to complete the 80 mL total liquid volume. In addition, triplicate bottles without substrate were also included as blanks. Bottles were sealed under a CO2 stream and incubated at 39° C. for 12 h. Pressure was recorded every two hours throughout the incubation period, by means of an HD 2124.02 manometer fitted with a TP804 pressure gauge (Delta Ohm, Caselle di Selvazzano, Italy). Readings were converted into volume by a pre-established linear regression equation between the pressure recorded in the same bottles under the same conditions and known air volumes (n=103; R2=0.996). The gas volume recorded for each incubation time was expressed per unit of incubated organic matter (OM). Methane (CH4) concentration was measured on every 6 h interval. At 6 and 12 h incubation samples were collected and either acidified 1:1 with 0.1N HCl or added to 0.5 ml of a deproteinizing mixture of 0.5 M PO4H3 with 2 mg/ml 4-methyl valeric acid, that were stored at −20° C. for determination of ammonia and volatile fatty acid (VFA) concentration, respectively. Note that the procedure of the in vitro gas production was the same for both fresh inocula and frozen inocula, with the only difference that the frozen samples of caecal contents were previously maintained at 38° C. for 5 min for thawing.
For gas production, results were analyzed for each incubation time as a split-plot design, considering the donor pig as a block, the contents (fresh vs. frozen) as the main plot and the treatment as the subplot. […] Differences were considered significant when P<0.05, and a trend for significance was considered when 0.05 ? P<0.10 and, when significant, differences were compared by the Tukey t test at P<0.05.

[3] = system: ileal microbiota; assay: Broiler feeding trial, ileal microbiota 16S rRNA sequencing; assay type: in vivo, chickens; settings: Groups B and C; T2 and T3, significant for T2 only, P<0.0001
Excerpt: as §1, §2
as §3, with “Sequencing was performed on Illumina MiSeq platform using a 2×250 bp paired end protocol, according to the manufacturer's instructions (Illumina).” left out
Bioinformatics and statistics. […] After chimera sequences removal, high-quality reads were filtered and binned into high-resolution operational taxonomic units (OTUs) according to the taxonomic threshold of 99% through an open-reference strategy performed with dada2 (Callahan et al, 2016). […] Alpha diversity was measured using Faith PD index and number of observed OTUs. […]

[4] = system: genes involved in Acetyl-CoA fermentation to Butyrate pathway; assay: Shotgun sequencing functional analysis: butyrate pathway genes (first set); assay type: cell-based, human; settings: 0.2× dose; after 24 h fermentation; vs corresponding control
[5] = system: fecal suspension from the selected donor; assay: Gas production in closed colon incubations (first set); assay type: cell-based, human; settings: after 48 h fermentation, vs corresponding control
Experimental: The colon incubations were performed in closed incubation systems. This allowed us to evaluate the accumulation of gasses in the headspace, which can be measured with a pressure meter. Gas production is a measure of microbial activity, and thus of the speed of fermentation of the potentially prebiotic substrates. It can be used as an indication for bloating and digestive wellbeing upon prebiotic consumption.
Since ethanol is known to have antimicrobial effects, two blanks for each type of stock solution were included. As a source of the microbial community, a freshly prepared fecal suspension from the selected donor was added to the reactors. […] All tests, except the blanks, were performed in single repetition, resulting in 40 independent incubations, as specified in Table 1. Incubation conditions of the pre-screening experiment and the final experiment were 48 h at 37° C., under shaking (90 rpm) and anaerobic conditions. DNA were extracted from effluent samples collected from each fermentation flask before (0 h fermentation) and after fermentation (24 h fermentation) and use for microbiome composition analysis by Shotgun sequencing. Effluent samples were collected from each fermentation flask before (0 h fermentation) and after fermentation (48 h fermentation), sterilized by filtering through 0.22 μm filters and used for short chain fatty acids (SCFA), quantification of immunological biomarkers and in vitro analysis in cell culture systems.
For both sets of in vitro experiments, colon incubations were performed in closed incubation systems as described above. This allowed to evaluate the accumulation of gasses in the headspace, which can be measured with a pressure meter. Gas production is a measure of microbial activity, and thus of the speed of fermentation of the potentially prebiotic substrates

Row | Compound | abundance of family Bacteroidaceae and genus Bacteroides in cecum ([1]; Group B (50 mg/kg riboflavin), all available time points) | cecal microbiota structure (beta diversity, UniFrac PCoA) ([1]; Group B (control diet+50 mg/kg riboflavin) vs groups A and C) | abundance of Bifidobacteriaceae in cecum ([1]; Group C (100 mg/kg riboflavin), from T1 to T3, significant at T2 and T3) | cecal species richness (observed OTUs) ([1]; Group C (control diet+100 mg/kg riboflavin), time points T2 and T3, P<0.0001) | [Eubacterium] coprostanoligenes group abundance in cecum ([1]; Groups B and C vs control group A, T2) | CH4 production as volume per unit of incubation substrate ([2]; 6 and 12 h incubation, ranking, no significant differences) | concentration of total VFA, molar proportions of VFA, ammonia concentration ([2]; among treatments) | CH4 proportion of total gas ([2]; up to 12 h incubation, numerical, no significant differences (P>0.05)) | volume of gas ([2]; vs control, 4, 10 and 12 h incubation, P<0.05) | ileal species richness (observed OTUs) [3] | relative abundance of genes involved in Acetyl-CoA fermentation to Butyrate pathway [4] | gas production ([5]; 1× dose) | gas production ([5]; 5× dose)
1 | Cc1cc2nc3c(=O)[nH]c(=O)nc-3n(C[C@H](O)[C@H](O)[C@H](O)CO)c2cc1C [Vitamin B2, riboflavin] | significantly higher abundances | different longitudinal trajectory | progressive increase | significant increase in species richness | higher abundance | lowest accumulate CH4 | No differences were recorded | the lowest | higher | increase in terms of species richness | – | – | –
2 | Vitamin E | – | – | – | – | – | – | – | – | – | – | increase relative abundance | reduced gas production | reduced gas production
